Test results published in PubChem BioAssay AID1259407 (Chemical Carcinogenesis Research Information System (CCRIS), 2018).
Active and inactive are the calls of the source. How the calls were made is not given here.

System: CCRIS mutagenicity, Ames/micronucleus/aberration tests
Assay: CCRIS mutagenicity studies

In the case of `CN(C)c1ccccc1`, the mutagenic call (End Point: IN VITRO CHROMOSOMAL ABERRATIONS, Test System: CHO CELLS, Metabolic Activation: NONE) is reported as “active; positive; at highest dose”, the mutagenic call (End Point: IN VITRO CHROMOSOMAL ABERRATIONS, Test System: CHO CELLS, Metabolic Activation: RAT, LIVER, S-9, AROCLOR 1254) is reported as “active; positive” and the mutagenic call (End Point: In vitro chromosomal aberrations, Test System: Chinese hamster lung (CHL/IU) cells, Metabolic Activation: Rat, Liver, S9, Phenobarbital and 5,6-benzoflavone) is reported as “active; positive (structural changes and ploidy)”. For the same compound, the mutagenic call (Test System: AMES SALMONELLA TYPHIMURIUM, Strain/Indicator: TA97, Metabolic Activation: HAMSTER, LIVER, S-9, AROCLOR 1254 (10 OR 30%), Method: PREINCUBATION) was “inactive; negative”, the mutagenic call (Test System: AMES SALMONELLA TYPHIMURIUM, Strain/Indicator: TA97, Metabolic Activation: NONE, Method: PREINCUBATION) was “inactive; negative” and the mutagenic call (Test System: AMES SALMONELLA TYPHIMURIUM, Strain/Indicator: TA97, Metabolic Activation: RAT, LIVER, S-9, AROCLOR 1254 (10 OR 30%), Method: PREINCUBATION) was “inactive; negative”. The mutagenic call (Test System: AMES SALMONELLA TYPHIMURIUM, Strain/Indicator: TA98, Metabolic Activation: HAMSTER, LIVER, S-9, AROCLOR 1254 (10 OR 30%), Method: PREINCUBATION) was “inactive; negative”, the mutagenic call (Test System: AMES SALMONELLA TYPHIMURIUM, Strain/Indicator: TA98, Metabolic Activation: HAMSTER, LIVER, S-9, AROCLOR 1254, Method: PREINCUBATION) was “inactive; negative” and the mutagenic call (Test System: AMES SALMONELLA TYPHIMURIUM, Strain/Indicator: TA98, Metabolic Activation: HAMSTER, LIVER, S-9, PHENOBARBITAL AND BETA-NAPHTHOFLAVONE, Method: PREINCUBATION) was “inactive; negative”. For the same compound, the mutagenic call (Test System: AMES SALMONELLA TYPHIMURIUM, Strain/Indicator: TA98, Metabolic Activation: RAT, LIVER, S-9, AROCLOR 1254 (10 OR 30%), Method: PREINCUBATION) was “inactive; negative”, the mutagenic call (Test System: AMES SALMONELLA TYPHIMURIUM, Strain/Indicator: TA98, Metabolic Activation: RAT, LIVER, S-9, AROCLOR 1254, Method: PREINCUBATION) was “inactive; negative” and the mutagenic call (Test System: AMES SALMONELLA TYPHIMURIUM, Strain/Indicator: TA100, Metabolic Activation: HAMSTER, LIVER, S-9, AROCLOR 1254 (10 OR 30%), Method: PREINCUBATION) was “inactive; negative”. The mutagenic call (Test System: AMES SALMONELLA TYPHIMURIUM, Strain/Indicator: TA100, Metabolic Activation: HAMSTER, LIVER, S-9, AROCLOR 1254, Method: PREINCUBATION) was “inactive; negative”, the mutagenic call (Test System: AMES SALMONELLA TYPHIMURIUM, Strain/Indicator: TA100, Metabolic Activation: HAMSTER, LIVER, S-9, PHENOBARBITAL AND BETA-NAPHTHOFLAVONE, Method: PREINCUBATION) was “inactive; negative” and the mutagenic call (Test System: AMES SALMONELLA TYPHIMURIUM, Strain/Indicator: TA100, Metabolic Activation: RAT, LIVER, S-9, AROCLOR 1254 (10 OR 30%), Method: PREINCUBATION) was “inactive; negative”. For the same compound, the mutagenic call (Test System: AMES SALMONELLA TYPHIMURIUM, Strain/Indicator: TA100, Metabolic Activation: RAT, LIVER, S-9, AROCLOR 1254, Method: PREINCUBATION) was “inactive; negative”, the mutagenic call (Test System: AMES SALMONELLA TYPHIMURIUM, Strain/Indicator: TA102, Metabolic Activation: HAMSTER, LIVER, S-9, PHENOBARBITAL AND BETA-NAPHTHOFLAVONE, Method: PREINCUBATION) was “inactive; negative” and the mutagenic call (Test System: AMES SALMONELLA TYPHIMURIUM, Strain/Indicator: TA102, Metabolic Activation: HAMSTER, LIVER, S-9, SODIUM PHENOBARBITAL AND 5,6-BENZOFLAVONE, Method: PREINCUBATION) was “inactive; negative”. The mutagenic call (Test System: AMES SALMONELLA TYPHIMURIUM, Strain/Indicator: TA102, Metabolic Activation: NONE, Method: PREINCUBATION) was “inactive; negative”, the mutagenic call (Test System: AMES SALMONELLA TYPHIMURIUM, Strain/Indicator: TA104, Metabolic Activation: HAMSTER, LIVER, S-9, PHENOBARBITAL AND BETA-NAPHTHOFLAVONE, Method: PREINCUBATION) was “inactive; negative” and the mutagenic call (Test System: AMES SALMONELLA TYPHIMURIUM, Strain/Indicator: TA104, Metabolic Activation: HAMSTER, LIVER, S-9, SODIUM PHENOBARBITAL AND 5,6-BENZOFLAVONE, Method: PREINCUBATION) was “inactive; negative”. The mutagenic call (Test System: AMES SALMONELLA TYPHIMURIUM, Strain/Indicator: TA104, Metabolic Activation: NONE, Method: PREINCUBATION) was “inactive; negative”, the mutagenic call (Test System: AMES SALMONELLA TYPHIMURIUM, Strain/Indicator: TA1535, Metabolic Activation: HAMSTER, LIVER, S-9, AROCLOR 1254, Method: PREINCUBATION) was “inactive; negative” and the mutagenic call (Test System: AMES SALMONELLA TYPHIMURIUM, Strain/Indicator: TA1535, Metabolic Activation: HAMSTER, LIVER, S-9, PHENOBARBITAL AND BETA-NAPHTHOFLAVONE, Method: PREINCUBATION) was “inactive; negative”. For the same compound, the mutagenic call (Test System: AMES SALMONELLA TYPHIMURIUM, Strain/Indicator: TA1535, Metabolic Activation: NONE, Method: PREINCUBATION) was “inactive; negative”, the mutagenic call (Test System: AMES SALMONELLA TYPHIMURIUM, Strain/Indicator: TA1535, Metabolic Activation: RAT, LIVER, S-9, AROCLOR 1254, Method: PREINCUBATION) was “inactive; negative” and the mutagenic call (Test System: AMES SALMONELLA TYPHIMURIUM, Strain/Indicator: TA1537, Metabolic Activation: HAMSTER, LIVER, S-9, AROCLOR 1254, Method: PREINCUBATION) was “inactive; negative”. For the same compound, the mutagenic call (Test System: AMES SALMONELLA TYPHIMURIUM, Strain/Indicator: TA1537, Metabolic Activation: HAMSTER, LIVER, S-9, PHENOBARBITAL AND BETA-NAPHTHOFLAVONE, Method: PREINCUBATION) was “inactive; negative”, the mutagenic call (Test System: AMES SALMONELLA TYPHIMURIUM, Strain/Indicator: TA1537, Metabolic Activation: NONE, Method: PREINCUBATION) was “inactive; negative” and the mutagenic call (Test System: AMES SALMONELLA TYPHIMURIUM, Strain/Indicator: TA1537, Metabolic Activation: RAT, LIVER, S-9, AROCLOR 1254, Method: PREINCUBATION) was “inactive; negative”. The mutagenic call (Test System: E. COLI, Strain/Indicator: WP2UVRA/PKM101, Metabolic Activation: HAMSTER, LIVER, S-9, PHENOBARBITAL AND BETA-NAPHTHOFLAVONE, Method: PREINCUBATION) was “inactive; negative”, the mutagenic call (Test System: E. COLI, Strain/Indicator: WP2UVRA/PKM101, Metabolic Activation: NONE, Method: PREINCUBATION) was “inactive; negative” and the mutagenic call (Test System: E. COLI, Strain/Indicator: WP2UVRA, Metabolic Activation: HAMSTER, LIVER, S-9, PHENOBARBITAL AND BETA-NAPHTHOFLAVONE, Method: PREINCUBATION) was “inactive; negative”. The mutagenic call (Test System: E. COLI, Strain/Indicator: WP2UVRA, Metabolic Activation: NONE, Method: PREINCUBATION) was “inactive; negative”, the mutagenic call (Test System: MOUSE LYMPHOMA TYPHIMURIUM, Strain/Indicator: L5178Y (TK+/TK-), Metabolic Activation: RAT, LIVER, S-9, AROCLOR 1254, Method: SUSPENSION/PLATE) was “active; positive” and the mutagenic call (Test System: MOUSE LYMPHOMA, Strain/Indicator: L5178Y (TK+/TK-), Metabolic Activation: NONE, Method: SUSPENSION/PLATE) was “active; positive”. The mutagenic call (Test System: UDS RODENT HEPATOCYTES, Strain/Indicator: THY INCORP (NON-S-PHASE), Metabolic Activation: NONE, Method: AUTORADIOGRAPHY) was “inactive; negative”.
